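Method: 48-hour compound exposure of cells in 96-well plates, five concentrations, linear interpolation of endpoints. GI50: concentration for 50% inhibition of growth. TGI denotes the concentration required for complete inhibition of growth.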
Tests used:
Assay in all cases: NCI-60 cell line screen, 48 h
[1] = test system: HCC-2998 colon
[2] = test system: TK-10 renal
[3] = test system: SF-539 CNS
[4] = test system: U251 CNS
[5] = test system: SK-MEL-28 melanoma
[6] = test system: OVCAR-5 ovarian
[7] = test system: HCT-116 colon
[8] = test system: SK-MEL-2 melanoma
[9] = test system: HL-60(TB) leukemia
[10] = test system: NCI/ADR-RES ovarian
[11] = test system: HOP-62 NSCLC
[12] = test system: NCI-H522 lung
[13] = test system: MDA-MB-231 breast
[14] = test system: COLO 205 colon
[15] = test system: HOP-92 NSCLC
[16] = test system: KM12 colon
[17] = test system: MCF7 breast

SMILES	TGI [1] [µM]	TGI [2] [µM]	TGI [3] [µM]	TGI [4] [µM]	TGI [5] [µM]	TGI [6] [µM]	TGI [7] [µM]	TGI [8] [µM]	TGI [9] [µM]	TGI [10] [µM]	TGI [11] [µM]	TGI [12] [µM]	TGI [13] [µM]	TGI [14] [µM]	TGI [15] [µM]	TGI [16] [µM]	TGI [17] [µM]	GI50 [3] [µM]	GI50 [7] [µM]	GI50 [11] [µM]
CC(C)NC(NC(C)C)=C(S(=O)(=O)C(F)(F)C(F)(F)C(F)(F)C(F)(F)F)S(=O)(=O)C(F)(F)C(F)(F)C(F)(F)C(F)(F)F	> 100	> 100	> 100	> 100	> 100	> 100	> 100	> 100	> 100	> 100	> 100	> 100	> 100	> 100	> 100	> 100	> 100	–	–	–
COc1cc(/C=C2/SC(c3ccccc3)N(c3ccccc3Cl)C2=O)cc(OC)c1OC (stereo not given)	> 100	> 100	36.6	67.8	> 100	> 100	67.7	> 100	> 100	85.3	> 100	32.3	> 100	95.5	> 100	> 100	> 100	–	–	–
COc1nc(N=P(c2ccccc2)(c2ccccc2)c2ccccc2)cc(=O)[nH]1	> 100	> 100	> 100	> 100	> 100	> 100	> 100	> 100	> 100	> 100	> 100	> 100	> 100	> 100	> 100	> 100	> 100	–	–	–
CCC/C=C/c1cc2c(cc1O)CC[C@@H]1[C@@H]2CC[C@]2(C)[C@@H](O)CC[C@@H]12	38.8	38	35.7	30.6	36.5	35.1	31.6	32.1	27.3	44.1	42.6	35.5	33.7	36.5	40.8	32.6	52.6	20.2	17.2	21.9
COC1(C)CP(=O)(OC(C)C)CC(C)=C1Cl (stereo not given)	49.1	33.2	39.2	48.9	61.3	39	21	45.9	29.1	> 100	51.7	24.8	34.1	30.2	25.6	34	18.6	–	–	–
O=C(O)COCC(=O)N(CCOCCN(Cc1ccccc1)C(=O)COCC(=O)O)Cc1ccccc1	> 100	> 100	> 100	> 100	> 100	> 100	> 100	> 100	> 100	> 100	> 100	> 100	> 100	> 100	> 100	> 100	> 100	–	–	–
COc1ccc2c(c1)-c1nc(=S)n(CCCN(C)C)c3ccc([N+](=O)[O-])c(c13)N2	18.6	17.1	6.08	17.7	2.81	3.62	2.93	31.6	1.64	9.23	2.46	2.98	2.1	17.6	20.7	6.31	3.01	–	–	–
O=c1oc2ccccc2cc1-c1csc(Nc2ccc(F)cc2)n1	17.1	8.21	3.5	9.55	6.6	20.9	5.65	39.2	35.3	13	8.22	3.82	26	14.9	24.4	18.4	15.5	–	–	–
COc1cc2ncnc(Nc3cccc(Cl)c3)c2cc1OC	54.3	3.61	32.8	79.4	42.6	47.2	46.2	30	62.4	20.3	58.7	18.4	54	> 70.5	38.9	28.8	72.2	–	–	–
O=C(O)C1CCCN(CCc2c[nH]c3ccccc23)C1 (stereo not given)	> 100	> 100	> 100	> 100	> 100	> 100	> 100	> 100	> 100	> 100	> 100	> 100	> 100	> 100	> 100	> 100	> 100	–	–	–
COC(=O)/C=C(/C=C1/C(C#N)=C(N)N(c2ccc(Cl)cc2)C1(C)/C(=C/C(=O)OC)C(=O)OC)C(=O)OC (stereo not given)	> 100	> 100	> 100	> 100	> 100	> 100	> 100	> 100	41.8	> 100	> 100	> 100	> 100	> 100	88.6	–	> 100	–	–	–
C/C(Cl)=N/OC(=O)Nc1ccc(S(N)(=O)=O)c(C)c1	32.7	17.9	–	33.7	30.6	34.4	25	33.5	3.05	> 55.5	34.9	3.45	22	4.14	4.7	41.2	29.1	–	–	–

From PubChem BioAssay (NCI)
